{"source": "ChEMBL document CHEMBL1201862", "about": "“PubChem BioAssay data set” (2004)", "assay_in_all_cases": "NCI-60 cell line screen, 48 h", "key": {"DLD-1": {"tested_on": "DLD-1"}, "HOP-18": {"tested_on": "HOP-18"}, "KM-20L2": {"tested_on": "KM-20L2"}, "LXFL 529": {"tested_on": "LXFL 529"}, "M19-MEL": {"tested_on": "M19-MEL"}, "RXF 631": {"tested_on": "RXF 631"}, "SNB-78": {"tested_on": "SNB-78"}, "BT-549": {"tested_on": "BT-549"}, "XF498": {"tested_on": "XF498"}}, "note": "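In this assay, cells in 96-well plates receive the compound at five concentrations for 48 hours. Endpoints are linearly interpolated between the surrounding concentrations. The concentration for 50% growth inhibition is given as GI50.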 Active and inactive are the calls of the source. No stated cut-off is given here; in the data, active = GI50 up to about 1.1 µM and inactive = higher."}
{"compound": "NCCNCc1c2ccccc2c(CNCCN)c2ccccc12", "values": [{"measurement": "GI50", "setting": "DLD-1", "value": "53.1 µM (inactive)"}, {"measurement": "GI50", "setting": "HOP-18", "value": "25.7 µM (inactive)"}, {"measurement": "GI50", "setting": "KM-20L2", "value": "10.3 µM (inactive)"}, {"measurement": "GI50", "setting": "LXFL 529", "value": "5.86 µM (inactive)"}, {"measurement": "GI50", "setting": "M19-MEL", "value": "14.8 µM (inactive)"}, {"measurement": "GI50", "setting": "RXF 631", "value": "45.7 µM (inactive)"}, {"measurement": "GI50", "setting": "SNB-78", "value": "12.7 µM (inactive)"}]}
{"compound": "O=C(Nc1ccccc1)OCCN=c1c2ccccc2ccc2ccccc12", "values": [{"measurement": "GI50", "setting": "BT-549", "value": "13 µM (inactive)"}]}
{"compound": "CCSc1s/c(=N/c2ccc(/N=c3\\sc(C)c(SC)s3)cc2)sc1-c1ccc(C)cc1", "values": [{"measurement": "GI50", "setting": "BT-549", "value": "> 100 µM (inactive)"}]}
{"compound": "COC(=O)c1c(C)cccc1C1CN=NC12Cc1cc(C)c(C)cc1C2=O", "note": "(centres undefined)", "values": [{"measurement": "GI50", "setting": "BT-549", "value": "32.4 µM (inactive)"}]}
{"compound": "COc1ccc(NC(=O)CC(=O)NN2C(=O)/C(=C/c3ccc(N(CCC#N)CCC#N)cc3C)N=C2/C=C\\c2ccccc2)cc1", "values": [{"measurement": "GI50", "setting": "DLD-1", "value": "> 100 µM (inactive)"}, {"measurement": "GI50", "setting": "HOP-18", "value": "18.5 µM (inactive)"}, {"measurement": "GI50", "setting": "KM-20L2", "value": "> 100 µM (inactive)"}, {"measurement": "GI50", "setting": "LXFL 529", "value": "> 100 µM (inactive)"}, {"measurement": "GI50", "setting": "M19-MEL", "value": "> 100 µM (inactive)"}, {"measurement": "GI50", "setting": "SNB-78", "value": "> 100 µM (inactive)"}]}
{"compound": "ON=C1CCCCC(=NO)CCCC1", "values": [{"measurement": "GI50", "setting": "BT-549", "value": "> 100 µM (inactive)"}]}
{"compound": "O=CN1CCN(C(=O)c2cc(Cl)cc(Cl)c2)C1=S", "values": [{"measurement": "GI50", "setting": "BT-549", "value": "17.3 µM (inactive)"}]}
{"compound": "O=C1C(C(O)(C(F)(F)Cl)C(F)(F)Cl)CCC1C(O)(C(F)(F)Cl)C(F)(F)Cl", "note": "(centres undefined)", "values": [{"measurement": "GI50", "setting": "BT-549", "value": "4.35 µM (inactive)"}]}
{"compound": "C=CC1=C(C)c2cc3[nH]c(c4c5nc(cc6[nH]c(cc1n2)c(C)c6CC)C(C)=C5C(=O)[C@@H]4C(=O)OC)[C@@H](CCC(=O)O)[C@@H]3C", "values": [{"measurement": "GI50", "setting": "BT-549", "value": "2.31 µM (inactive)"}]}
{"compound": "Cc1cnc2ccc(C)c([N+](=O)[O-])c2c1NCCCN(C)C", "values": [{"measurement": "GI50", "setting": "KM-20L2", "value": "91.6 µM (inactive)"}, {"measurement": "GI50", "setting": "M19-MEL", "value": "> 100 µM (inactive)"}, {"measurement": "GI50", "setting": "SNB-78", "value": "> 100 µM (inactive)"}, {"measurement": "GI50", "setting": "XF498", "value": "> 100 µM (inactive)"}]}
{"compound": "CCSc1nc2sc(C)c(C)c2c(=O)n1-c1ccc(C(=O)O)cc1", "values": [{"measurement": "GI50", "setting": "DLD-1", "value": "43.2 µM (inactive)"}, {"measurement": "GI50", "setting": "HOP-18", "value": "10.2 µM (inactive)"}, {"measurement": "GI50", "setting": "KM-20L2", "value": "> 100 µM (inactive)"}, {"measurement": "GI50", "setting": "M19-MEL", "value": "60 µM (inactive)"}, {"measurement": "GI50", "setting": "SNB-78", "value": "94 µM (inactive)"}, {"measurement": "GI50", "setting": "XF498", "value": "75.7 µM (inactive)"}]}
{"compound": "O=C1c2cccc3cc([N+](=O)[O-])cc(c23)C(=O)N1O", "values": [{"measurement": "GI50", "setting": "BT-549", "value": "28.6 µM (inactive)"}]}
{"compound": "CC(C)c1cc(CN(C)C)c(O)c(C(C)(C)C)c1", "values": [{"measurement": "GI50", "setting": "BT-549", "value": "37.5 µM (inactive)"}]}
{"compound": "COc1cc(/C=[N+](\\[O-])c2ccccc2Cl)ccc1OC(=S)S", "values": [{"measurement": "GI50", "setting": "BT-549", "value": "26.9 µM (inactive)"}]}
{"compound": "COc1ccc2c3c(c(C(=O)O)oc13)C(CCC(=O)O)CC2", "note": "(centres undefined)", "values": [{"measurement": "GI50", "setting": "DLD-1", "value": "> 100 µM (inactive)"}, {"measurement": "GI50", "setting": "HOP-18", "value": "> 100 µM (inactive)"}, {"measurement": "GI50", "setting": "KM-20L2", "value": "> 100 µM (inactive)"}, {"measurement": "GI50", "setting": "LXFL 529", "value": "> 100 µM (inactive)"}, {"measurement": "GI50", "setting": "SNB-78", "value": "> 100 µM (inactive)"}, {"measurement": "GI50", "setting": "XF498", "value": "> 100 µM (inactive)"}]}
